In PubChem BioAssay (NCI):
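Growth conditions: 96-well plates. Treatment: test compound, 48 hours, 5 concentrations. Analysis: linear interpolation between bracketing concentrations; unreached endpoints set to highest concentration. Abbreviation: GI50, concentration required for 50% inhibition of growth. TGI: concentration producing complete growth inhibition.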

What was measured:
Assay in all cases: NCI-60 cell line screen, 48 h
[1] = tested on: CAKI-1 renal
[2] = tested on: CCRF-CEM leukemia
[3] = tested on: EKVX NSCLC
[4] = tested on: OVCAR-8 ovarian
[5] = tested on: SK-MEL-2 melanoma
[6] = tested on: SK-MEL-5 melanoma
[7] = tested on: U251 CNS

| SMILES | TGI [1] [µM] | TGI [2] [µM] | TGI [3] [µM] | TGI [4] [µM] | TGI [5] [µM] | TGI [6] [µM] | TGI [7] [µM] | GI50 [1] [µM] | GI50 [4] [µM] | GI50 [5] [µM] | GI50 [6] [µM] | GI50 [7] [µM] | GI50 [3] [µM] | GI50 [2] [µM] |
| --- | --- | --- | --- | --- | --- | --- | --- | --- | --- | --- | --- | --- | --- | --- |
| O=C1C=CC(O)C2C1CC13SSC4(CC5C(=O)C=CC(O)C5N4C1=O)C(=O)N23 (stereo not given) | 0.957 | 1.95 | 2.33 | 0.271 | 3.56 | 1.06 | 1.28 |  |  |  |  |  |  |  |
| NCCSCCc1ccccc1 | > 100 |  | > 100 | > 100 | > 100 | > 100 | > 100 |  |  |  |  |  |  |  |
| Clc1nc(Cl)c2ncn(Cc3ccc(Cn4cnc5c(Cl)nc(Cl)nc54)cc3)c2n1 | 27.8 | 1.84 | 25 | 25 | 34.9 | 20.8 | 27.7 | 13.6 | 10.4 | 10.8 | 2.13 | 13.2 |  |  |
| C=C1[C@@H]([C@@]2(C)C=CC(=O)C(C)(C)[C@@H]2CC(=O)OC)CC[C@@]2(C)C(c3ccoc3)OC(=O)[C@H]3O[C@]132 (stereo not given in full) | > 100 | > 100 | > 100 | > 100 | > 100 | > 100 | > 100 |  |  |  |  |  |  |  |
| O=[N+]([O-])c1ccc(S(=O)(=O)Cc2ccccc2)c2nonc12 | 38.2 | 67.8 | 41.8 | 49 | 42.2 | 36.5 | 36.1 |  |  |  |  |  |  |  |
| CC1=C(/C=C/C(C)=C/C=C/C(C)=C/CO)C(C)(C)CCC1 | > 100 | 46.4 | > 100 |  | 44 | 32 | 39 |  |  |  |  |  |  |  |
| Cc1ccc(-c2nc(N3CCCNCC3)c3oc(-c4ccc(C)cc4)nc3n2)cc1 | 3.02 |  | > 100 | 4.22 | 45.4 |  | 3.18 | 1.56 | 2.11 | 21.3 |  | 1.76 | 4.09 |  |
| C=CCCCc1ccc(C(O)CCCCCCCCCCCC)o1 (stereo not given) | 33.2 | 56.8 | 37.5 | 44.9 | 42.9 | 37.2 | 29.1 | 17.4 | 20.6 | 19.5 | 18.5 | 15.5 | 20.1 | 23.1 |
| COc1cc(Cl)cc(-c2nn(-c3cccc(NC(=O)Nc4ccc(Cl)c(C(F)(F)F)c4)c3)cc2-c2ccncc2)c1 | 9.43 | 3.65 |  | 5.93 | 4.21 | 2.93 | 2.11 | 0.816 | 0.739 | 1.79 | 1.54 | 0.729 |  | 0.613 |
| Cc1nc(Nc2nc3ccccc3o2)nc(-c2cccc([N+](=O)[O-])c2)c1C(=O)Nc1ccc(F)c(Cl)c1 |  | 24.2 |  | > 100 | 4.73 | 3.45 | 8.27 |  | 2.44 | 2.03 | 1.71 | 2.06 |  | 2.34 |
| COc1ccc(-c2nn(-c3cccc(NC(=O)c4ccc(N5CCOCC5)c(C(F)(F)F)c4)c3)cc2-c2ccncc2)cc1Cl | > 50 | > 50 |  | > 50 | > 50 | > 50 | > 50 | 3.64 | 4.47 | 16.3 | 6.4 | 1.14 |  | 2.92 |
| C=CS(=O)(=O)CCN1CC1 | > 10 | > 10 |  | > 10 |  | > 10 | > 10 |  |  |  |  |  |  |  |
| N#Cc1cc(S(=O)(=O)Nc2nc3ccccc3s2)c(SCc2ccccc2)cc1Cl | 45 | 94.6 | 34.5 | 39.8 | 36.8 | 31 | 38.2 | 18.6 | 6.12 | 15.3 | 15.4 | 19.2 | 17.1 | 28.5 |
| Cc1c(Sc2ccccc2)[n+](=O)c2cc(Cl)c(Cl)cc2n1[O-] | > 100 | > 100 | > 100 | > 100 | > 100 | > 100 | > 100 | 42 | 25.6 | > 100 | 54.1 | > 100 | > 100 | 32.8 |
| COc1ccc(Nc2cc(C)nc(N3CCN(c4ccnc5cc(Cl)ccc45)CC3)n2)cc1 | > 100 | > 100 |  | > 100 |  | 3.35 | 36.6 | 2.71 | 3.25 |  | 1.67 | 3.06 |  | 2.85 |
| CN(/N=N/c1nc(OCc2ccccc2)c2[nH]cnc2n1)C(=O)Oc1ccc([N+](=O)[O-])cc1 | 35.4 |  | 35.9 | 26.3 | 28.5 | 16.3 | 15.3 | 10.9 | 9.81 | 11.9 | 6.89 | 7.51 | 11.5 |  |
| C=C1c2c(Cl)ccc(O)c2C(O)=C2C(=O)[C@]3(O)C(O)=C(C(N)=O)C(=O)[C@@H](N(C)C)[C@@H]3[C@@H](O)[C@H]12 | 3.4 | 39.6 | 13 | 8.12 | 1.98 | 1.57 | 4.09 | 0.499 | 1.32 | 0.727 | 0.801 | 0.949 | 1.51 | 1.45 |
| Oc1ccc(Cl)cc1CNc1nc2ccccc2[nH]1 | 28.1 | 88.5 |  | 30.8 | 33 | 25.6 | 24.5 | 11.4 | 12.9 | 15.9 | 13 | 11.7 |  | 17.9 |
| C/C=C(\C)C(=O)N[C@H]1C(O)C[C@]2(C)C3CC[C@@]4(C)C(CC[C@@H]4C(C)N(C)C)C3CCC2C1O (stereo not given in full) | 38.8 | 75.8 | > 50.9 | > 90.8 | 49.1 | 3.46 | 27.6 | 9.42 | 28.9 | 24.1 | 1.65 | 4.35 | 9.38 | 7.76 |
| O=C1OC(c2ccccc2)=N/C1=C\c1cccc(F)c1 | > 100 | 72.7 | > 100 | 64.9 | > 100 | > 100 | > 100 |  |  |  |  |  |  |  |
